≈ marks a conversion by molar mass, not a printed value.
Tests used:
Test in all cases: In vitro assay of antibacterial activity (agar dilution MIC)
Assay type in all cases: cell-based
[1] = test system: Staphylococcus aureus A5177; conditions: BHI agar, 35-37 °C, 20 to 24 hours, unit assumed
Experimental: (§1) Representative compounds of the present invention were assayed in vitro for antibacterial activity as follows: Twelve petri dishes containing successive aqueous dilutions of the test compound mixed with 10 mL of sterilized Brain Heart Infusion (BHI) agar (Difco 0418-01-5) were prepared. Each plate was inoculated with 1:100 (or 1:10 for slow-growing strains, such as Micrococcus and Streptococcus) dilutions of up to 32 different microorganisms, using a Steers replicator block. The inoculated plates were incubated at 35-37 °C for 20 to 24 hours, In addition, a control plate, using BHI agar containing no test compound, was prepared and incubated at the beginning and end of each test.
(§2) An additional plate containing a compound having known susceptibility patterns for the organisms being tested and belonging to the same antibiotic class as the test compound was also prepared and incubated as a further control, as well as to provide test-to-test comparability.
(§3) After incubation, each plate was visually inspected. The minimum inhibitory concentration (MIC) was defined as the lowest concentration of drug yielding no growth, a slight haze, or sparsely isolated colonies on the inoculum spot as compared to the growth control. […]

[2] = test system: Enterobacter aerogenes ATCC 13048; conditions: BHI agar, 35-37 °C, 20 to 24 hours, unit assumed
Experimental: as §1
(§4) An additional plate containing a compound having known susceptibility patterns for the organisms being tested and belonging to the same antibiotic class as the test compound was also prepared and incubated as a further control, as well as to provide test-to-test comparability. Erythromycin A was used for this purpose.
as §3

[3] = test system: Providencia struartii CMX 640; conditions: BHI agar, 35-37 °C, 20 to 24 hours, unit assumed
Experimental: as §1, §4, §3

[4] = test system: Micrococcus luteus ATCC 9341; conditions: BHI agar, 35-37 °C, 20 to 24 hours, unit assumed
Experimental: as §1, §4, §3

[5] = test system: Escherichia coli DC-2; conditions: BHI agar, 35-37 °C, 20 to 24 hours, unit assumed
Experimental: as §1, §4, §3

[6] = test system: Pseudomonas aeruginosa 5007; conditions: BHI agar, 35-37 °C, 20 to 24 hours, unit assumed
Experimental: as §1, §4, §3

[7] = test system: Staphylococcus aureus NCTC10649M; conditions: BHI agar, 35-37 °C, 20 to 24 hours, unit assumed
Experimental: as §1, §4, §3

[8] = test system: Staphylococcus aureus 1775; conditions: BHI agar, 35-37 °C, 20 to 24 hours, unit assumed
Experimental: as §1, §4, §3

[9] = test system: Pseudomonas aeruginosa DPHD-2862; conditions: BHI agar, 35-37 °C, 20 to 24 hours, unit assumed
Experimental: as §1, §4, §3

[10] = test system: Pseudomonas aeruginosa K799/61; conditions: BHI agar, 35-37 °C, 20 to 24 hours, unit assumed
Experimental: as §1, §4, §3

[11] = test system: Pseudomonas aeruginosa K799/WT; conditions: BHI agar, 35-37 °C, 20 to 24 hours, unit assumed
Experimental: as §1, §4, §3

[12] = test system: Pseudomonas aeruginosa DPHD-5263; conditions: BHI agar, 35-37 °C, 20 to 24 hours, in µg/mL (unit assumed)
Experimental: as §1, §4, §3

[13] = test system: Klebsiella pneumoniae ATCC 8045; conditions: BHI agar, 35-37 °C, 20 to 24 hours, unit assumed
Experimental: as §1, §4, §3

[14] = test system: Streptococcus pyogenes 930; conditions: BHI agar, 35-37 °C, 20 to 24 hours, unit assumed
Experimental: as §1, §4, §3

[15] = test system: Escherichia coli KNK 437; conditions: BHI agar, 35-37 °C, 20 to 24 hours, unit assumed
Experimental: as §1, §4, §3

[16] = test system: Escherichia coli SS; conditions: BHI agar, 35-37 °C, 20 to 24 hours, unit assumed
Experimental: as §1, §4, §3

[17] = test system: Staphylococcus epidermidis 3519; conditions: BHI agar, 35-37 °C, 20 to 24 hours, unit assumed
Experimental: as §1, §4, §3

[18] = test system: Escherichia coli H560; conditions: BHI agar, 35-37 °C, 20 to 24 hours, unit assumed
Experimental: as §1, §4, §3

[19] = test system: Staphylococcus aureus ATCC 6538P; conditions: BHI agar, 35-37 °C, 20 to 24 hours, unit assumed
Experimental: as §1, §4, §3

[20] = test system: Streptococcus agalactiae CMX 508; conditions: BHI agar, 35-37 °C, 20 to 24 hours, unit assumed
Experimental: as §1, §4, §3

[21] = test system: Escherichia coli JUHL; conditions: BHI agar, 35-37 °C, 20 to 24 hours, in µg/mL (unit assumed)
Experimental: as §1, §4, §3

[22] = test system: Streptococcus pyogenes PIU 2548; conditions: BHI agar, 35-37 °C, 20 to 24 hours, unit assumed
Experimental: as §1, §4, §3

[23] = test system: Staphylococcus aureus CMX 642A; conditions: BHI agar, 35-37 °C, 20 to 24 hours, unit assumed
Experimental: as §1, §4, §3

[24] = test system: Pseudomonas capacia 2961; conditions: BHI agar, 35-37 °C, 20 to 24 hours, in µg/mL (unit assumed)
Experimental: as §1, §4, §3

[25] = test system: Staphylococcus aureus A-5278; conditions: BHI agar, 35-37 °C, 20 to 24 hours, unit assumed
Experimental: as §1, §4, §3

[26] = test system: Streptococcus bovis A-5169; conditions: BHI agar, 35-37 °C, 20 to 24 hours, unit assumed
Experimental: as §1, §4, §3

[27] = test system: Pseudomonas aeruginosa BMH10; conditions: BHI agar, 35-37 °C, 20 to 24 hours, in µg/mL (unit assumed)
Experimental: as §1, §4, §3

[28] = test system: Candida albicans CCH 442; conditions: BHI agar, 35-37 °C, 20 to 24 hours, unit assumed
Experimental: as §1, §4, §3

[29] = test system: Micrococcus luteus ATCC 4698; conditions: BHI agar, 35-37 °C, 20 to 24 hours, unit assumed
Experimental: as §1, §4, §3

[30] = test system: Enterococcus faecium ATCC 8043; conditions: BHI agar, 35-37 °C, 20 to 24 hours, unit assumed
Experimental: as §1, §4, §3

[31] = test system: Staphylococcus aureus CMX 553; conditions: BHI agar, 35-37 °C, 20 to 24 hours, unit assumed
Experimental: as §1, §4, §3

[32] = test system: Actinetobacter calcoaceticus CMX 669; conditions: BHI agar, 35-37 °C, 20 to 24 hours, unit assumed
Experimental: as §1, §2, §3

[33] = test system: Mycobacterium smegmatis ATCC 114; conditions: BHI agar, 35-37 °C, 20 to 24 hours, unit assumed
Experimental: as §1, §4, §3

Row | Molecule | MIC [2] | MIC [3] | MIC [4] | MIC [6] | MIC [7] | MIC [8] | MIC [9] | MIC [10] | MIC [11] | MIC [12] | MIC [13] | MIC [14] | MIC [15] | MIC [17] | MIC [18] | MIC [19] | MIC [20] | MIC [21] | MIC [22] | MIC [23] | other results
1 | CC[C@H]1OC(=O)[C@H](C)[C@@H](O[C@H]2C[C@@](C)(OC)[C@@H](O)[C@H](C)O2)[C@H](C)[C@@H](O[C@@H]2O[C@H](C)C[C@H](N(C)C)[C@H]2O)[C@](C)(O)C[C@@H](C)C(=O)[C@H](C)[C@@H](O)[C@]1(C)O [Ery. A, Erythromycin A, reference compound] | > 100 µg/mL | > 100 µg/mL | 0.05 µg/mL (≈ 0.0681 µM) | > 100 µg/mL | 0.39 µg/mL (≈ 0.531 µM) | > 100 µg/mL | > 100 µg/mL | 1.56 µg/mL (≈ 2.13 µM) | 100 µg/mL (≈ 136 µM) | >100 | > 100 µg/mL | > 100 µg/mL | 100 µg/mL (≈ 136 µM) | 0.39 µg/mL (≈ 0.531 µM) | 50 µg/mL (≈ 68.1 µM) | 0.2 µg/mL (≈ 0.273 µM) | 0.05 µg/mL (≈ 0.0681 µM) | > 100 | 3.1 µg/mL (≈ 4.22 µM) | 0.39 µg/mL (≈ 0.531 µM) | MIC [1]: 3.1 µg/mL (≈ 4.22 µM); MIC [5]: > 100 µg/mL; MIC [16]: 0.78 µg/mL (≈ 1.06 µM); MIC [24]: > 100; MIC [25]: > 100 µg/mL; MIC [26]: 0.02 µg/mL (≈ 0.0273 µM); MIC [27]: > 100; MIC [28]: > 100 µg/mL; MIC [29]: 0.2 µg/mL (≈ 0.273 µM); MIC [30]: 0.05 µg/mL (≈ 0.0681 µM); MIC [31]: 0.39 µg/mL (≈ 0.531 µM)
2 | CC[C@H]1OC(=O)[C@H](C)[C@@H](O[C@H]2C[C@@](C)(OC)[C@@H](O)[C@H](C)O2)[C@H](C)[C@@H](O[C@@H]2O[C@H](C)C[C@H](N(C)C)[C@H]2O)[C@](C)(OCC(C)=O)C[C@@H](C)C(=O)[C@H](C)[C@@H](O)[C@]1(C)O [Example 9, Compound of Formula (X); X is =O. R is 2-oxopropyl] | > 100 µg/mL | > 100 µg/mL | 3.1 µg/mL | > 100 µg/mL | 3.1 µg/mL | > 100 µg/mL | > 100 µg/mL | 12.5 µg/mL | > 100 µg/mL | > 100 | > 100 µg/mL | > 100 µg/mL | > 100 µg/mL | 3.1 µg/mL | > 100 µg/mL | 3.1 µg/mL | 3.1 µg/mL | > 100 | 12.5 µg/mL | 3.1 µg/mL | MIC [32]: 50 µg/mL; MIC [33]: 3.1 µg/mL; MIC [24]: > 100; MIC [25]: > 100 µg/mL; MIC [26]: 3.1 µg/mL; MIC [27]: > 100; MIC [28]: > 100 µg/mL; MIC [30]: 3.1 µg/mL
3 | Compound of Formula (X): X is =N-OH, R is allyl [Example 1C] | > 100 µg/mL | > 100 µg/mL | 0.1 µg/mL | > 100 µg/mL | 0.78 µg/mL | > 100 µg/mL | > 100 µg/mL | 6.2 µg/mL | > 100 µg/mL | > 100 | > 100 µg/mL | > 100 µg/mL | > 100 µg/mL | 0.39 µg/mL | 100 µg/mL | 0.78 µg/mL | 0.01 µg/mL | 100 | 3.1 µg/mL | 1.56 µg/mL | MIC [32]: 50 µg/mL; MIC [5]: > 100 µg/mL; MIC [33]: 0.2 µg/mL; MIC [16]: 0.78 µg/mL; MIC [24]: > 100; MIC [25]: > 100 µg/mL; MIC [26]: 0.01 µg/mL; MIC [27]: > 100; MIC [28]: > 100 µg/mL; MIC [29]: 1.56 µg/mL; MIC [30]: 0.2 µg/mL; MIC [31]: 0.78 µg/mL
4 | Compound of Formula (XII): X is-=N-O-(1-isopropoxycyclohexyl), R is allyl, R^p is trimethylsilyl [Example 1B] | > 100 µg/mL | > 100 µg/mL | 0.2 µg/mL | > 100 µg/mL | 3.1 µg/mL | > 100 µg/mL | > 100 µg/mL | 6.2 µg/mL | > 100 µg/mL | > 100 | > 100 µg/mL | > 100 µg/mL | > 100 µg/mL | 0.39 µg/mL | 100 µg/mL | 0.78 µg/mL | 0.1 µg/mL | > 100 | 6.2 µg/mL | 1.56 µg/mL | MIC [32]: 50 µg/mL; MIC [5]: > 100 µg/mL; MIC [16]: 3.1 µg/mL; MIC [24]: > 100; MIC [25]: > 100 µg/mL; MIC [26]: 0.02 µg/mL; MIC [27]: > 100; MIC [28]: > 100 µg/mL; MIC [29]: 3.1 µg/mL; MIC [30]: 0.2 µg/mL; MIC [31]: 1.56 µg/mL

— EP1007530B1, “6-O-SUBSTITUTED ERYTHROMYCIN COMPOUNDS AND METHOD FOR MAKING SAME” (ABBOTT LABORATORIES, priority 1996, dated 1997)
